Data taken from patent publication US10732174B2, “Three dimensional tissues for high-throughput assays” (INVIVOSCIENCES, INC., priority 2008, dated 2020).
Entries after “also recorded” stand apart in the source; their conditions may differ. Like-named read-outs stand apart in the source and are kept apart here.

Legend:
[1] = test system: hydrogel tissue constructs (HTCs) of REF-52 cells; test: HTC force measurement (Palpator); format: cell-based, rat; conditions: for effect on tissue (HTC contractile) force, in words: 3 and 24 hr; for EC50: Rattus norvegicus, read-out: EC50 of tissue force reduction
Procedure: Rat embryonic fibroblasts (REF-52) were cultured in Dulbecco's Modified Eagle's Medium (DMEM, MT10013CM, Fisher Scientific, Pittsburgh, Pa.) supplemented with 10% fetal bovine serum (FBS, S11050, Atlanta Biologicals, Lawrenceville, Ga.). Cells were sub-cultured every two to three days. To make hydrogel tissue constructs (HTCs), REF-52 cells (between passages 40 to 70) were dissociated from culture plates by treating with 0.05% trypsin (MT-25-025-CI, Fisher Scientific) for 10 to 15 min. The cells were then centrifuged at 1000 g for 10 min. The trypsin solution was decanted and the cell pellet was re-suspended in 10% FBS DMEM medium. This cell suspension was diluted in HTC tissue solution to achieve a final concentration of 8×10^5 cells per ml. The HTC tissue solution consisted of 10% FBS DMEM, 1 mg/ml of type 1 collagen (354249, BD Biosciences, San Jose, Calif.) in 0.02 N acetic acid, sufficient sodium hydroxide to neutralize the acid in the collagen, and sufficient 5×DMEM to compensate for the volume of collagen and NaOH. To prevent premature collagen polymerization, the HTC tissue solution was kept on ice until its distribution into our custom-made tissue molds (FIG. 3). Each mold contains 8 separate HTC-forming wells with two built-in horizontal support bars. Three hundred microliters of the HTC tissue solution was aliquoted into each well in these molds and then incubated for 30 min at 37° C. and 5% CO2. After the incubation period, […] of 10% FBS DMEM medium was added to each well and the molds were further incubated for 48 hr. In this time, the solution contracted to form HTCs that span the support bars in the wells.
The Palpator™ (as described in U.S. Pat. No. 7,449,306, which is incorporated herein by reference in its entirety) was used to quantify the contractility of the HTCs. The molds were placed on the stage of the Palpator™ which automatically inserted a probe into each well and stretched the individual HTC. The probe was connected to a force transducer which measured the resistance force induced in the HTC in response to stretch and exported the values to a computer for recording. A custom Matlab algorithm was used to process and analyze the force data to report a numerical parameter that is indicative of the active cell force in the HTC. To obtain stable measurements of the HTC contractile force, it was necessary to precondition the HTCs by stretching three times prior to actual force measurement. Preconditioning was not necessary if subsequent force measurements were within 30 min of the previous stretch. HTCs at 24 hr post treatment were always pre-conditioned before force measurement.

HepG2 cells = conditions: previously reported; cited from earlier work

Row | SMILES | reduction in EC50 of effect on tissue force ([1]; 24 hr vs 3 hr) [fold] | concentration needed to reduce tissue force relative to H-1152 or CD ([1]; HTC) | effect on tissue (HTC contractile) force, in words ([1]; HTC) | EC50 ([1]; REF52, 3 h) [µM] | EC50 ([1]; REF52, 24 h) [µM] | toxicity (HepG2 cells) [%]
1 | O=[N+]([O-])c1ccc(O)c([N+](=O)[O-])c1 [DNP, 2,4-dinitrophenol] | 65 | ~10,000 fold | dose-dependently reduced HTC contractile force; also recorded: also reduced tissue force; also recorded: very effective at reducing HTC force | 1300 | 20 | –
2 | C=C(C)[C@H]1Cc2c(ccc3c2O[C@@H]2COc4cc(OC)c(OC)cc4[C@@H]2C3=O)O1 [ROT, rotenone] | – | – | dose-dependently reduced HTC contractile force; also recorded: also reduced tissue force; also recorded: moderate negative impact | – | – | 25
